Laboratory results published in ChEMBL document CHEMBL1201862, “PubChem BioAssay data set” (2004).
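Each compound was tested at five concentrations against cells in 96-well plates for 48 hours. Here, GI50 denotes the concentration required for 50% inhibition of growth.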 Activity calls are given as the source filed them. No stated cut-off is given here; in the data, active = GI50 up to about 1.1 µM and inactive = higher. Where a SMILES comes first, the peptide text is derived from it. The star is where a group is joined. OSu = O=C1CCC(=O)N1O*; OBn = c1ccc(CO*)cc1; Bn = c1ccc(C*)cc1

How the values were obtained:
Test in all cases: NCI tumour cell line growth inhibition, 48 h
[1] = tested on: SK-MEL-5
[2] = tested on: HCT-116
[3] = tested on: MDA-N
[4] = tested on: NCI-H23
[5] = tested on: HT-29
[6] = tested on: OVCAR-8
[7] = tested on: MCF7
[8] = tested on: PC-3
[9] = tested on: SNB-75
[10] = tested on: NCI-H460
[11] = tested on: HOP-92
[12] = tested on: RPMI-8226
[13] = tested on: OVCAR-4
[14] = tested on: SF-295
[15] = tested on: M14
[16] = tested on: U-251
[17] = tested on: HCC 2998
[18] = tested on: K562
[19] = tested on: HOP-62
[20] = tested on: HL-60

SMILES | GI50 [1] | GI50 [2] | GI50 [3] | GI50 [4] | GI50 [5] | GI50 [6] | GI50 [7] | GI50 [8] | GI50 [9] | GI50 [10] | GI50 [11] | GI50 [12] | GI50 [13] | GI50 [14] | GI50 [15] | GI50 [16] | GI50 [17] | GI50 [18] | GI50 [19] | GI50 [20]
CC(C)CC(NC(=O)C(N)CCC(=O)OCc1ccccc1)C(=O)NC(COCc1ccccc1)C(=O)NC(Cc1ccccc1)C(=O)ON1C(=O)CCC1=O (centres undefined) (H-E(OBn)LS(Bn)F-OSu; configuration not given here) | 17.4 µM (inactive) | 16.4 µM (inactive) | 21.4 µM (inactive) | 26.4 µM (inactive) | 38.2 µM (inactive) | 31.6 µM (inactive) | 27.4 µM (inactive) | 24.5 µM (inactive) | 35.7 µM (inactive) | 32.7 µM (inactive) | 15 µM (inactive) | 19.9 µM (inactive) | 27.8 µM (inactive) | 24.4 µM (inactive) | 33.4 µM (inactive) | 24.4 µM (inactive) |  |  |  | 
C[C@H](NC(=O)CNC(=O)CCCCCC(=O)NCC(=O)N[C@@H](C)C(=O)OCc1ccccc1)C(=O)OCc1ccccc1 |  | > 100 µM (inactive) | > 100 µM (inactive) | > 100 µM (inactive) | > 100 µM (inactive) | > 100 µM (inactive) | > 100 µM (inactive) | > 100 µM (inactive) | > 100 µM (inactive) |  | > 100 µM (inactive) | > 100 µM (inactive) | > 100 µM (inactive) | > 100 µM (inactive) | > 100 µM (inactive) | > 100 µM (inactive) | > 100 µM (inactive) | > 100 µM (inactive) | > 100 µM (inactive) | 
O=c1ccn(C2OC(CN(O)CCC3C(O)C(CO)OC3n3ccc(=O)[nH]c3=O)C(O)C2O)c(=O)[nH]1 (centres undefined) |  | > 100 µM (inactive) | > 100 µM (inactive) | > 100 µM (inactive) | > 100 µM (inactive) | > 100 µM (inactive) | > 100 µM (inactive) | > 100 µM (inactive) | > 100 µM (inactive) | > 100 µM (inactive) | > 100 µM (inactive) | > 100 µM (inactive) | > 100 µM (inactive) | > 100 µM (inactive) | > 100 µM (inactive) | > 100 µM (inactive) | > 100 µM (inactive) | > 100 µM (inactive) | > 100 µM (inactive) | 
[N-]=[N+]=Nc1ccccc1-c1ccccc1[N+](=O)[O-] |  | 43 µM (inactive) | 30.9 µM (inactive) | 35.1 µM (inactive) | 44.3 µM (inactive) | 73.3 µM (inactive) | 52 µM (inactive) | 37.8 µM (inactive) | 50 µM (inactive) | 26.9 µM (inactive) | 72.1 µM (inactive) | 26 µM (inactive) | 72.9 µM (inactive) | 73.3 µM (inactive) | 50.9 µM (inactive) | 42.9 µM (inactive) |  | 31.3 µM (inactive) | 87.9 µM (inactive) | 
C(=NCCN1CCOCC1)=NC1CCCCC1 | > 100 µM (inactive) | > 100 µM (inactive) | > 100 µM (inactive) | > 100 µM (inactive) | > 100 µM (inactive) | > 100 µM (inactive) | > 100 µM (inactive) | > 100 µM (inactive) | > 100 µM (inactive) | > 100 µM (inactive) | > 100 µM (inactive) | > 100 µM (inactive) | > 100 µM (inactive) | > 100 µM (inactive) | > 100 µM (inactive) | > 100 µM (inactive) |  | > 100 µM (inactive) | > 100 µM (inactive) | 
COc1c(O)c(OC)c2oc(-c3ccc(O)cc3)c(OC)c(=O)c2c1O | 17.4 µM (inactive) | 46.3 µM (inactive) | 79.4 µM (inactive) | 30.8 µM (inactive) | 32.4 µM (inactive) | 38 µM (inactive) | 41.7 µM (inactive) | 48.6 µM (inactive) |  | 45.7 µM (inactive) |  | 56.9 µM (inactive) |  | > 100 µM (inactive) | 47.2 µM (inactive) | 23.9 µM (inactive) | 32 µM (inactive) | 55.6 µM (inactive) | 24.4 µM (inactive) | > 100 µM (inactive)
O=C1CSC(c2ccc([N+](=O)[O-])cc2)N1c1ccc(-n2c(-c3ccccc3)nc3ccccc3c2=O)cc1 (centres undefined) | 82.2 µM (inactive) | 61.9 µM (inactive) | > 100 µM (inactive) | > 100 µM (inactive) | > 100 µM (inactive) | > 100 µM (inactive) | 73.5 µM (inactive) | > 100 µM (inactive) |  | > 100 µM (inactive) |  | > 100 µM (inactive) | 21.3 µM (inactive) | > 100 µM (inactive) | > 100 µM (inactive) | > 100 µM (inactive) | 41 µM (inactive) | 86.9 µM (inactive) | > 100 µM (inactive) | > 100 µM (inactive)
Nc1n[n+]([O-])c2ccc(Cl)cc2[n+]1[O-] | 4.07 µM (inactive) | 18.5 µM (inactive) | 23.7 µM (inactive) | 20.1 µM (inactive) | 25.8 µM (inactive) | > 10 µM (inactive) | 16.9 µM (inactive) | 22.3 µM (inactive) | 4.66 µM (inactive) |  |  | 14.7 µM (inactive) |  | 23 µM (inactive) | 17.1 µM (inactive) | 19.8 µM (inactive) | 16.4 µM (inactive) | 10.3 µM (inactive) | 11 µM (inactive) | 7.23 µM (inactive)
COc1ccc(-c2cc(-c3ccc(Nc4ccnc5cc(Cl)ccc45)cc3)nc(N)c2C#N)c2ccccc12 | > 100 µM (inactive) | > 100 µM (inactive) | > 100 µM (inactive) | > 100 µM (inactive) | > 100 µM (inactive) | > 100 µM (inactive) | > 100 µM (inactive) | > 100 µM (inactive) | > 100 µM (inactive) | > 100 µM (inactive) |  | > 100 µM (inactive) | > 100 µM (inactive) | > 100 µM (inactive) | > 100 µM (inactive) | > 100 µM (inactive) | > 100 µM (inactive) | > 100 µM (inactive) | > 100 µM (inactive) | 
O=C(O)CCC(NC(=O)c1ccc(CNc2nc3ccccc3nc2C(=O)O)cc1)C(=O)O (centres undefined) | > 100 µM (inactive) | > 100 µM (inactive) | > 100 µM (inactive) | > 100 µM (inactive) | > 100 µM (inactive) | > 100 µM (inactive) | > 100 µM (inactive) | > 100 µM (inactive) | > 100 µM (inactive) |  |  | > 100 µM (inactive) | > 100 µM (inactive) | > 100 µM (inactive) | > 100 µM (inactive) | > 100 µM (inactive) |  | > 100 µM (inactive) | > 100 µM (inactive) | 
COc1ccc(O)c(/C(C)=N/NC(=S)N(C)C)c1 | 9.18 µM (inactive) | 19.6 µM (inactive) | > 73.3 µM (inactive) | 24.7 µM (inactive) | 0.0306 µM (active) | 33.4 µM (inactive) |  | > 36.4 µM (inactive) | 75.5 µM (inactive) | 15.6 µM (inactive) | > 100 µM (inactive) | 47.4 µM (inactive) | 2.63 µM (inactive) | 31.3 µM (inactive) | 11.8 µM (inactive) | > 36.6 µM (inactive) | > 61.9 µM (inactive) | 60.1 µM (inactive) | 21.9 µM (inactive) | 56 µM (inactive)
Cc1cc2c(c(C(=O)NCC(=O)N[C@@H](C)C(=O)OCc3ccccc3)c1)Oc1c(cc(C)cc1C(=O)NCC(=O)N[C@@H](C)C(=O)OCc1ccccc1)S2 | > 100 µM (inactive) | > 100 µM (inactive) | > 100 µM (inactive) | > 100 µM (inactive) | > 100 µM (inactive) | > 100 µM (inactive) | > 100 µM (inactive) | > 100 µM (inactive) | 15.8 µM (inactive) | > 100 µM (inactive) |  | 43.3 µM (inactive) | > 100 µM (inactive) | > 100 µM (inactive) | > 100 µM (inactive) | > 100 µM (inactive) | 34.7 µM (inactive) | 23 µM (inactive) | 71.3 µM (inactive) | 
CN1C(CC(O)c2ccccc2)CCCC1CC(O)(c1ccccc1)c1ccccc1 (centres undefined) | 16.6 µM (inactive) | 14.9 µM (inactive) | 18.5 µM (inactive) | 16.7 µM (inactive) | 12.1 µM (inactive) | 20.8 µM (inactive) | 20.9 µM (inactive) | 18.2 µM (inactive) | 19.1 µM (inactive) |  |  | 17.1 µM (inactive) |  | 16.9 µM (inactive) | 16.8 µM (inactive) | 15.1 µM (inactive) | 22.9 µM (inactive) | 29 µM (inactive) | 14.3 µM (inactive) | 17.3 µM (inactive)
c1cc2nnc1SCCCSc1ccc(nn1)SCCCSc1ccc(nn1)SCCCS2 | > 100 µM (inactive) | > 100 µM (inactive) | > 100 µM (inactive) | > 100 µM (inactive) | > 100 µM (inactive) | > 100 µM (inactive) | > 100 µM (inactive) | > 100 µM (inactive) | 28.6 µM (inactive) | > 100 µM (inactive) |  | > 100 µM (inactive) | > 100 µM (inactive) | > 100 µM (inactive) | > 100 µM (inactive) | 65.2 µM (inactive) | > 100 µM (inactive) | > 100 µM (inactive) | 39.6 µM (inactive) | > 100 µM (inactive)
CCn1c(SCC(=O)N/N=C2\SCC(=O)N2c2ccc(C)cc2)nc2ccccc2c1=O | 22.9 µM (inactive) | 20 µM (inactive) | 23.6 µM (inactive) | 19.1 µM (inactive) | 16.5 µM (inactive) | 17 µM (inactive) | 20.6 µM (inactive) | 21.3 µM (inactive) | 17.1 µM (inactive) | 24.7 µM (inactive) |  | 18.5 µM (inactive) | 18.2 µM (inactive) | 18.6 µM (inactive) | 36.1 µM (inactive) | 20.7 µM (inactive) | 36.8 µM (inactive) | 29.2 µM (inactive) | 21.7 µM (inactive) | 92.3 µM (inactive)
